Laboratory results taken from publication PMC5853558, “De novo identification of lipid II binding lipopeptides with antibacterial activity against vancomycin-resistant bacteria” (Chemical Science, 2017).
Values after ≈ are worked out from the molar mass of the structure shown. *1 amine or outer side, *2 acyl side, *3 side chain or, on linkers, in order; H or OH if unused. Where a SMILES comes first, the peptide text is derived from it. Bridges are numbered along the chain shown (N, C = ends). [ ]: non-standard residue; d: D form. The star is where a group is joined. TBMB = c1c(C[*:1])cc(C[*:3])cc1C[*:2]; NHDecyl = CCCCCCCCCCN*

What was measured:
E. faecium E980 = test: UDP-MurNAc-pentapeptide accumulation assay; type: cell-based, Enterococcus faecium; conditions: E. faecium E980, peptides at 10x MIC, 30 min, chloramphenicol 130 µg/ml pre-treatment, LCMS; triplicate measurements
Method: We next examined the effect of the optimized P8-D-(S6R, R15A)-C10 lipopeptide on cell wall biosynthesis in live bacteria. Specifically, we employed an assay where the accumulation of the soluble intracellular lipid II precursor UDP-MurNAc-pentapeptide is measured in response to antibiotic administration. Antibiotics known to interfere with cell wall biosynthesis by sequestration of lipid II (i.e. vancomycin) can lead to UDP-MurNAc-pentapeptide accumulation in the cytosol which can then be extracted and assessed by chromatographic means.[18],[33] […] The effect of the lipopeptides on bacterial cell morphology was further investigated using scanning electron microscopy. To this end, VRE 155 cells were imaged after exposure to either P8-D-(S6R, R15A)-C10 or nisin at 2× the MIC.
Section 4 Biological and biochemical experiments
4.1 Minimum inhibitory concentration assay
MIC values were determined by using the broth microdilution method. […]
determining the MICs of the lipidated peptides, the lipopeptides were first dissolved in DMSO and diluted with TSB so that the peptide concentration was 128 µg/ml and the DMSO concentration was 4%. After inoculation the highest peptide concentration evaluated was 64 µg/ml and the DMSO concentration was 2%. […]
Hemolysis was determined by measuring the absorption at 414 nm to measure the amount of free […]

M. luteus (NCTC2665) = test: microbe, parasite or virus in culture; type: cell-based, Micrococcus luteus
Method in brief: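 Growth inhibition was scored by broth microdilution in TSB against peptide serial dilutions (maximum 512 µg/ml; lipidated analogues maximum 64 µg/ml; 2% DMSO). Bacteria reaching OD600 0.5 were added from a 1 x 10^6 CFU/ml suspension, then plates were incubated shaking at 250 rpm.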

Sheep blood = test: Hemolysis assay; type: cell-based; conditions: Supplemental table S9; 1 hour incubation at 37 °C, lipopeptides at 32 µg/mL
Method in brief: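 Washed sheep erythrocytes in PBS were incubated with serial peptide dilutions, top concentration 64 µg/mL with 2% DMSO, for 1 h at 37 °C. Released hemoglobin in the supernatant was read at 414 nm and referenced to 0.1% Triton X-100 (100% lysis) and PBS/2% DMSO (0% lysis).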

[1] = Supplemental table S9, MIC values of Table 2 expressed in µM
[2] = Table 2, broth microdilution in TSB, 16 h, read visually, highest tested 64 µg/ml, 2% DMSO

SMILES | Accumulation of UDP-MurNAc-pentapeptide (E. faecium E980) | MIC M. luteus (NCTC2665) (M. luteus (NCTC2665); [1]) [µM] | MIC M. luteus (NCTC2665) (M. luteus (NCTC2665); [2]) [μg mL^–1] | Hemolysis (Sheep blood) [%]
CCCCCCCCCCNC(=O)CNC(=O)[C@H]1CSCc2cc3cc(c2)CSC[C@@H](NC(=O)[C@@H](CC(C)C)NC(=O)[C@@H](CC(C)C)NC(=O)[C@@H](CCCNC(=N)N)NC(=O)[C@@H](CCC(N)=O)NC(=O)[C@@H](CC(C)C)NC(=O)[C@@H](CC(C)C)NC(=O)[C@H](NC(=O)[C@@H](C)N)CSC3)C(=O)N2CCC[C@@H]2C(=O)N[C@H](Cc2ccc(O)cc2)C(=O)N[C@H](CO)C(=O)N[C@H]([C@H](C)O)C(=O)N[C@H](Cc2c[nH]cn2)C(=O)N[C@H](C)C(=O)N1 [P8-D-(S6R, R15A)-C10] (H-[dA][dC][dL][dL][dQ][dR][dL][dL][dC][dP][dY][dS][dT][dH][dA][dC]G-NHDecyl; linker 2-9-16 via TBMB; N-terminus assumed) | significant accumulation | 3.8 (≈ 7.99 µg/mL) | 4 | 0
CCCCCCCCCCNC(=O)CNC(=O)[C@@H]1CSCc2cc3cc(c2)CSC[C@H](NC(=O)[C@H](CC(C)C)NC(=O)[C@H](CC(C)C)NC(=O)[C@H](CCCNC(=N)N)NC(=O)[C@H](CCC(N)=O)NC(=O)[C@H](CC(C)C)NC(=O)[C@H](CC(C)C)NC(=O)[C@@H](NC(=O)[C@H](C)N)CSC3)C(=O)N2CCC[C@H]2C(=O)N[C@@H](Cc2ccc(O)cc2)C(=O)N[C@@H](CO)C(=O)N[C@@H]([C@@H](C)O)C(=O)N[C@@H](Cc2c[nH]cn2)C(=O)N[C@@H](C)C(=O)N1 [P8-L-(S6R, R15A)-C10] (H-ACLLQRLLCPYSTHACG-NHDecyl; linker 2-9-16 via TBMB; N-terminus assumed) | significant accumulation | 3.8 (≈ 7.99 µg/mL) | 4 | 0
